Data from patent publication US9980943B2, “Methods of treating muscular dystrophy” (BOARD OF REGENTS OF THE NEVADA SYSTEM OF HIGHER EDUCATION, …, priority 2013, dated 2018).

Legend:
Type in all cases: cell-based, mouse
[1] = system: α7 integrin (LacZ reporter in α7+/LacZ myotubes); assay: Myotube α7 integrin FDG assay (Burkin assay in myotubes, 96-well); details: myotubes
[2] = system: β-galactosidase in CMV-LacZ C2C12 myotubes; assay: CMV-LacZ secondary screen in C2C12 myotubes (β-Gal stabilizing assay); details: C2C12 CMV-LacZ myotubes, fold relative to DMSO
Summary of the method: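 Dose-response runs at 0.5–40 μM (0.5, 1, 5, 10, 20, 40 μM; N=2 per point) used a clonal C2C12 line carrying CMV-LacZ. Cells were assayed as myoblasts or as differentiated myotubes, and β-galactosidase levels were read with the FDG fluorogenic substrate.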

[3] = system: α7 integrin (LacZ reporter in α7βgal+/− myoblasts); assay: Myoblast α7+/LacZ integrin FDG assay (Burkin assay in myoblasts, 96-well); details: α7+/LacZ myoblasts, 96-well
[4] = system: β-galactosidase in CMV-LacZ C2C12 myoblasts; assay: CMV-LacZ secondary screen in C2C12 myoblasts (β-Gal stabilizing assay); details: CMV-LacZ C2C12 myoblasts
Summary of the method: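 A secondary screen identifies compounds that stabilize β-gal independently of the native promoter, using CMV-LacZ C2C12 cells. Curves span 0.5–40 μM at six levels, in duplicate.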

Row | Compound | Burkin Assay in Myotubes, α7 integrin LacZ reporter signal relative to DMSO ([1]; 0.5 uM) | Burkin Assay in Myotubes, α7 integrin LacZ reporter signal relative to DMSO ([1]; 1 uM) | Burkin Assay in Myotubes, α7 integrin LacZ reporter signal relative to DMSO ([1]; 5 uM) | Burkin Assay in Myotubes, α7 integrin LacZ reporter signal relative to DMSO ([1]; 10 uM) | Burkin Assay in Myotubes, α7 integrin LacZ reporter signal relative to DMSO ([1]; 20 uM) | Burkin Assay in Myotubes, α7 integrin LacZ reporter signal relative to DMSO ([1]; 40 uM) | CMV-LACZ in Myotubes, signal relative to DMSO ([2]; 0.5 uM) | CMV-LACZ in Myotubes, signal relative to DMSO ([2]; 1 uM) | CMV-LACZ in Myotubes, signal relative to DMSO ([2]; 5 uM) | CMV-LACZ in Myotubes, signal relative to DMSO ([2]; 10 uM) | CMV-LACZ in Myotubes, signal relative to DMSO ([2]; 20 uM) | CMV-LACZ in Myotubes, signal relative to DMSO ([2]; 40 uM) | Burkin Assay in Myoblasts, signal relative to DMSO ([3]; 0.5 uM) | Burkin Assay in Myoblasts, signal relative to DMSO ([3]; 1 uM) | Burkin Assay in Myoblasts, signal relative to DMSO ([3]; 5 uM) | Burkin Assay in Myoblasts, signal relative to DMSO ([3]; 10 uM) | Burkin Assay in Myoblasts, signal relative to DMSO ([3]; 20 uM) | Burkin Assay in Myoblasts, signal relative to DMSO ([3]; 40 uM) | CMV-LACZ in Myoblasts (β-galactosidase activity relative to DMSO) ([4]; 0.5 uM) | CMV-LACZ in Myoblasts (β-galactosidase activity relative to DMSO) ([4]; 1 uM) | also measured
1 | COc1ccccc1CC(=O)Nc1cc(S(=O)(=O)N2CCOCC2)ccc1N1CCOCC1 [MLS002170630-01] | 1.03 | 1.075 | 0.9697 | 1.123 | 0.8857 | 1.0714 | 0.8136 | 1.0036 | 1.2068 | 0.9248 | 0.9710 | 0.8580 | 1.122 | 0.9708 | 1.0982 | 1.216 | 0.7825 | 0.6735 | 0.9954 | 0.8054 | CMV-LACZ in Myoblasts (β-galactosidase activity relative to DMSO) ([4]; 5 uM): 0.9890; CMV-LACZ in Myoblasts (β-galactosidase activity relative to DMSO) ([4]; 10 uM): 0.9628; CMV-LACZ in Myoblasts (β-galactosidase activity relative to DMSO) ([4]; 20 uM): 0.8233; CMV-LACZ in Myoblasts (β-galactosidase activity relative to DMSO) ([4]; 40 uM): 0.7387
2 | CC1CCN(C(CNS(=O)(=O)c2ccccc2)c2ccccc2)CC1 (stereo not drawn) [MLS002171615-01] | 1.107 | 1.17 | 0.9709 | 0.9947 | 0.8432 | 0.8303 | 0.9863 | 0.7874 | 0.9989 | 0.9582 | 1.0111 | 1.0711 | 1.052 | 0.9407 | 0.9747 | 0.8859 | 0.709 | 0.6178 | 1.0498 | 1.3505 | CMV-LACZ in Myoblasts (β-galactosidase activity relative to DMSO) ([4]; 5 uM): 0.9273; CMV-LACZ in Myoblasts (β-galactosidase activity relative to DMSO) ([4]; 10 uM): 0.9905; CMV-LACZ in Myoblasts (β-galactosidase activity relative to DMSO) ([4]; 20 uM): 1.2159; CMV-LACZ in Myoblasts (β-galactosidase activity relative to DMSO) ([4]; 40 uM): 0.6726
3 | COc1ccccc1NS(=O)(=O)c1cc(NC(=O)c2ccc(Cl)nc2)ccc1N1CCCC1 [MLS002248819-01] | 1.117 | 1.198 | 1.066 | 1.24 | 0.9243 | 0.8508 | 1.0819 | 0.9505 | 1.1171 | 1.1534 | 0.9847 | 1.1929 | 1.126 | 1.113 | 1.068 | 1.0849 | 0.8184 | 0.7689 | 0.9206 | 1.2206 | CMV-LACZ in Myoblasts (β-galactosidase activity relative to DMSO) ([4]; 5 uM): 1.2604; CMV-LACZ in Myoblasts (β-galactosidase activity relative to DMSO) ([4]; 10 uM): 1.1575; CMV-LACZ in Myoblasts (β-galactosidase activity relative to DMSO) ([4]; 20 uM): 1.7330; CMV-LACZ in Myoblasts (β-galactosidase activity relative to DMSO) ([4]; 40 uM): 1.0270
4 | c1ccc(-c2cn3c4c(sc3n2)CCCC4)cc1 [MLS002636056-01] | 0.9619 | 1.089 | 0.9203 | 1.027 | 0.9045 | 1.167 | 0.9855 | 1.2636 | 1.0269 | 1.1613 | 1.4090 | 1.1160 | 1.157 | 1.066 | 1.037 | 1.224 | 0.9377 | 0.8203 | 0.9392 | 0.9021 | CMV-LACZ in Myoblasts (β-galactosidase activity relative to DMSO) ([4]; 5 uM): 1.0394; CMV-LACZ in Myoblasts (β-galactosidase activity relative to DMSO) ([4]; 10 uM): 1.2571; CMV-LACZ in Myoblasts (β-galactosidase activity relative to DMSO) ([4]; 20 uM): 1.1173; CMV-LACZ in Myoblasts (β-galactosidase activity relative to DMSO) ([4]; 40 uM): 0.8270
5 | COc1cc(NC(=O)OCc2ccccc2)c2ncccc2c1 [MLS002667707-01] | 0.9955 | 1.01 | 0.8939 | 0.954 | 0.8049 | 0.7617 | 0.8905 | 1.0590 | 0.9449 | 1.0227 | 1.1576 | 1.1071 | 1.0156 | 0.9172 | 1.02 | 1.235 | 0.9347 | 0.8314 | 1.1434 | 0.6763 | CMV-LACZ in Myoblasts (β-galactosidase activity relative to DMSO) ([4]; 5 uM): 1.1897; CMV-LACZ in Myoblasts (β-galactosidase activity relative to DMSO) ([4]; 10 uM): 1.0803; CMV-LACZ in Myoblasts (β-galactosidase activity relative to DMSO) ([4]; 20 uM): 1.0044; CMV-LACZ in Myoblasts (β-galactosidase activity relative to DMSO) ([4]; 40 uM): 1.1226
6 | Cc1ccccc1S(=O)(=O)N1C[C@H]2CON(C)[C@H]2C[C@H]1c1cccc(-c2ccccc2)c1 [MLS002694363-01] | 0.9909 | 1.01 | 0.9178 | 0.8787 | 0.6694 | 0.4108 | 1.0695 | 1.1800 | 1.1420 | 0.9775 | 0.9870 | 0.7460 | 1.062 | 1.061 | 1.045 | 1.09 | 0.7581 | 0.7066 | 1.1110 | 1.2840 | CMV-LACZ in Myoblasts (β-galactosidase activity relative to DMSO) ([4]; 5 uM): 0.7616; CMV-LACZ in Myoblasts (β-galactosidase activity relative to DMSO) ([4]; 10 uM): 1.0392; CMV-LACZ in Myoblasts (β-galactosidase activity relative to DMSO) ([4]; 20 uM): 1.0123; CMV-LACZ in Myoblasts (β-galactosidase activity relative to DMSO) ([4]; 40 uM): 0.5698
